# Test results taken from patent US7173004B2, “Macrocyclic isoquinoline peptide inhibitors of hepatitis C virus” (Bristol-Myers Squibb Company, priority 2003, dated 2007).
# Tested on: HCV replicon (HCV 1b-377-neo replicon cells, Huh7)
# Assay: HCV replicon cell-based FRET assay
# Settings: Hepatitis C virus, Huh-7
# Summary of the method: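 Huh7 cells carrying a neo-selectable genotype 1b HCV replicon (~3,000 RNA copies/cell) were seeded at 1.5×10^4 cells/well and treated 4 days at 37 °C (0.5% DMSO final). CC50 was read by alamar Blue (4 h, ex 530/em 580 nm). Lysates with 10 μM EDANS/DABCYL NS3 protease FRET peptide were read kinetically (ex 340/em 490 nm, 25 °C, ~15 min) for % inhibition.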
row,Compound,EC50 [nM]
1,"COc1ccc2c(O[C@@H]3C[C@H]4C(=O)N[C@]5(C(=O)NS(=O)(=O)C6CC6)C[C@H]5/C=C\CCCOC[C@H](NC(=O)OC(C)(C)C)C(=O)N4C3)nccc2c1 [Compound 85, (1S,4R,6S,14S,18R)-[7-cis-4-Cyclopropanesulfonylaminocarbonyl-18-(6-methoxy-isoquinolin-1-yloxy)-2,15-dioxo-12-oxa-3,16-diaza-tricyclo[14.3.0.0^4,6]nonadec-7-en-14-yl]-carbamic acid, tert-butyl ester]",< 50
2,COc1ccc2c(OC3CC4C(=O)NC5(C(=O)NS(=O)(=O)C6CC6)CC5C=CCCCOCC(NC(=O)OC(C)C)C(=O)N4C3)nc(-c3ccc(N(C)C)cc3)cc2c1 (centres unmarked) [Compound 109],< 50
3,COc1ccc2c(OC3CC4C(=O)NC5(C(=O)NS(=O)(=O)C6CC6)CC5C=CCOCCCC(NC(=O)OCC(C)(C)C)C(=O)N4C3)nc(-c3ccccc3)cc2c1 (centres unmarked) [Compound 103],< 50
4,"COc1ccc2c(O[C@@H]3C[C@H]4C(=O)N[C@]5(C(=O)NS(=O)(=O)C6CC6)C[C@H]5/C=C\COCC[C@H](NC(=O)OC(C)(C)C)C(=O)N4C3)nccc2c1 [Compound 141, [(Z)-(1S,4R,13S,17R)-4-cyclopropanesulfonylaminocarbonyl-17-(6-methoxy-isoquinolin-1-yloxy)-2,14-dioxo-10-oxa-3,15-diaza-tricyclo[13.3.0.0^4,6]octadec-7-en-13-yl]-carbamic acid tert-butyl ester]",500 to 5000
5,CCC1(S(=O)(=O)NC(=O)C23CC2C=CCCCSCC(NC(=O)OC(C)(C)C)C(=O)N2CC(Oc4nccc5cc(OC)ccc45)CC2C(=O)N3)CC1 (centres unmarked) [Compound 121],< 50
6,COc1cccc2c(OC3CC4C(=O)NC5(C(=O)NS(=O)(=O)C6CC6)CC5C=CCCCCCC(NC(=O)OC(C)(C)C)C(=O)N4C3)nccc12 (centres unmarked) [Compound 133],< 50
7,CN1CCC/C=C\[C@@H]2C[C@@]2(C(=O)NS(=O)(=O)C2CC2)NC(=O)[C@@H]2C[C@@H](Oc3nccc4ccccc34)CN2C(=O)[C@@H](NC(=O)OC(C)(C)C)C1 [Compound 147],< 50
8,COc1ccc2c(OC3CC4C(=O)NC5(C(=O)NS(=O)(=O)C6CC6)CC5C=CCCCOCC(NC(=O)OC5CCCC5)C(=O)N4C3)nc(-c3ccccc3)cc2c1 (centres unmarked) [Compound 94],< 50
9,COc1ccc2c(OC3CC4C(=O)NC5(C(=O)NS(=O)(=O)C6CC6)CC5C=CCCCCCC(NC(=O)OC(C)(C)C)C(=O)N4C3)nccc2c1OC (centres unmarked) [Compound 134],< 50
10,CC(C)(C)OC(=O)N[C@H]1CNCCC/C=C\[C@@H]2C[C@@]2(C(=O)NS(=O)(=O)C2CC2)NC(=O)[C@@H]2C[C@@H](Oc3nccc4ccccc34)CN2C1=O [Compound 151],50 to 500
11,COc1ccc2c(OC3CC4C(=O)NC5(C(=O)NS(=O)(=O)C6CC6)CC5C=CCCCOCC(NC(=O)OCC(C)(C)C)C(=O)N4C3)nc(-c3ccccc3)cc2c1 (centres unmarked) [Compound 95],< 50
